Experiments:
[1] = tested on: ML-2; test: cells; parameters: species or system AML cell lines (8); Secondary HTS, 10-point dose-response in triplicate, Cell Titer Glo viability, four-parameter fit EC50; details: Homo sapiens, ML-2, 72 h, read-out: ML-2
[2] = tested on: ML2; test: Secondary dose-response HTS, Cell Titer Glo; type: cell-based, human; details: Homo sapiens; secondary high-throughput screen; ML-2; read-out: average effective concentration, ML-2
[3] = tested on: M07e; test: Secondary dose-response HTS, Cell Titer Glo; type: cell-based, human; details: Homo sapiens, M-07e; secondary high-throughput screen; M07e; read-out: average effective concentration, M07e
[4] = tested on: CMK; test: Secondary dose-response HTS, Cell Titer Glo; type: cell-based, human; details: Homo sapiens, CMK, read-out: average effective concentration, CMK
[5] = tested on: MV4-11; test: cells; parameters: species or system AML cell lines (8); Secondary HTS, 10-point dose-response in triplicate, Cell Titer Glo viability, four-parameter fit EC50; details: Homo sapiens, MV4-11, 72 h, read-out: MV4-11
[6] = tested on: MOLM-13; test: cells; parameters: species or system AML cell lines (8); Secondary HTS, 10-point dose-response in triplicate, Cell Titer Glo viability, four-parameter fit EC50; details: Homo sapiens, MOLM-13, 72 h, read-out: MOLM-13
[7] = tested on: CHRF288-11; test: cells; parameters: species or system AML cell lines (8); Secondary HTS, 10-point dose-response in triplicate, Cell Titer Glo viability, four-parameter fit EC50; details: 72 h, read-out: CHRF288-11
[8] = tested on: U937; test: cells; parameters: species or system AML cell lines (8); Secondary HTS, 10-point dose-response in triplicate, Cell Titer Glo viability, four-parameter fit EC50; details: Homo sapiens, U-937, 72 h, read-out: U937
[9] = tested on: CMS; test: Secondary dose-response HTS, Cell Titer Glo; type: cell-based, human; details: Homo sapiens, HTS, read-out: average effective concentration, CMS
[10] = tested on: U937; test: Secondary dose-response HTS, Cell Titer Glo; type: cell-based, human; details: Homo sapiens, U-937; secondary high-throughput screen; U937; read-out: average effective concentration, U937
[11] = tested on: CHRF288-11; test: Secondary dose-response HTS, Cell Titer Glo; type: cell-based, human; details: Homo sapiens, HTS; secondary high-throughput screen; CHRF288-11; read-out: average effective concentration, CHRF288-11
[12] = tested on: CMS; test: cells; parameters: species or system AML cell lines (8); Secondary HTS, 10-point dose-response in triplicate, Cell Titer Glo viability, four-parameter fit EC50; details: 72 h, read-out: CMS
[13] = tested on: MOLM-13; test: Secondary dose-response HTS, Cell Titer Glo; type: cell-based, human; details: Homo sapiens; secondary high-throughput screen; MOLM-13; read-out: average effective concentration, MOLM-13
[14] = tested on: M07e; test: cells; parameters: species or system AML cell lines (8); Secondary HTS, 10-point dose-response in triplicate, Cell Titer Glo viability, four-parameter fit EC50; details: M-07e, 72 h, read-out: M07e
[15] = tested on: MV4-11; test: Secondary dose-response HTS, Cell Titer Glo; type: cell-based, human; details: Homo sapiens; secondary high-throughput screen; MV4-11; read-out: average effective concentration, MV4-11
[16] = tested on: CMK; test: cells; parameters: species or system AML cell lines (8); Secondary HTS, 10-point dose-response in triplicate, Cell Titer Glo viability, four-parameter fit EC50; details: Homo sapiens, CMK, 72 h, read-out: CMK
[17] = tested on: CHRF288-11; parameters: species or system AML cell lines (8); Primary HTS, single concentration about 10 uM, Cell Titer Glo viability; log10 luminescence, per cent inhibition relative to cycloheximide control; details: 72 h, relative to cycloheximide control, log10 luminescence; inhibitor
[18] = tested on: CMK; parameters: species or system AML cell lines (8); Primary HTS, single concentration about 10 uM, Cell Titer Glo viability; log10 luminescence, per cent inhibition relative to cycloheximide control; details: 72 h, relative to cycloheximide control, log10 luminescence; inhibitor
[19] = tested on: U937; parameters: species or system AML cell lines (8); Primary HTS, single concentration about 10 uM, Cell Titer Glo viability; log10 luminescence, per cent inhibition relative to cycloheximide control; details: 72 h, relative to cycloheximide control, log10 luminescence; inhibitor
[20] = tested on: CMS; parameters: species or system AML cell lines (8); Primary HTS, single concentration about 10 uM, Cell Titer Glo viability; log10 luminescence, per cent inhibition relative to cycloheximide control; details: 72 h, relative to cycloheximide control, log10 luminescence; inhibitor
[21] = tested on: M07e; parameters: species or system AML cell lines (8); Primary HTS, single concentration about 10 uM, Cell Titer Glo viability; log10 luminescence, per cent inhibition relative to cycloheximide control; details: 72 h, relative to cycloheximide control, log10 luminescence; inhibitor
[22] = tested on: MV4-11; parameters: species or system AML cell lines (8); Primary HTS, single concentration about 10 uM, Cell Titer Glo viability; log10 luminescence, per cent inhibition relative to cycloheximide control; details: 72 h, relative to cycloheximide control, log10 luminescence; inhibitor
[23] = tested on: MOLM-13; parameters: species or system AML cell lines (8); Primary HTS, single concentration about 10 uM, Cell Titer Glo viability; log10 luminescence, per cent inhibition relative to cycloheximide control; details: 72 h, relative to cycloheximide control, log10 luminescence; inhibitor
[24] = tested on: ML-2; parameters: species or system AML cell lines (8); Primary HTS, single concentration about 10 uM, Cell Titer Glo viability; log10 luminescence, per cent inhibition relative to cycloheximide control; details: 72 h, relative to cycloheximide control, log10 luminescence; inhibitor
[25] = secondary high-throughput screen
[26] = secondary high-throughput screen, CMS

| SMILES | EC50 [2] [µM] | EC50 [3] [µM] | EC50 [5] [µM] | EC50 [6] [µM] | EC50 [9] [µM] | EC50 [10] [µM] | EC50 [11] [µM] | EC50 [9, 26] [µM] | EC50 [16] [µM] | also measured |
| --- | --- | --- | --- | --- | --- | --- | --- | --- | --- | --- |
| Nc1nc(Cl)nc2c1ncn2[C@@H]1O[C@H](CO)[C@@H](O)[C@@H]1F [Clofarabine, clofarabine] | – | – | – | – | – | – | – | – | – | EC50 [1]: 0.125 µM |
| Nc1cc(F)ccc1NC(=O)c1ccc(CNC(=O)/C=C/c2cccnc2)cc1 [CHIDAMIDE] | 8.7 | 1.5 | > 10 | > 10 | 9.9 | – | – | – | – | EC50 [4]: 0.25 µM; EC50 [7]: > 10 µM; EC50 [8]: > 10 µM |
| Nc1ncn([C@H]2C[C@H](O)[C@@H](CO)O2)c(=O)n1 [DECITABINE] | – | – | 9.6 | – | – | 0.31 | 7 | – | – | EC50 [4, 25]: 4.3 µM; EC50 [1]: > 10 µM; EC50 [12]: > 10 µM; EC50 [13]: 0.001 µM; EC50 [14]: > 10 µM |
| COc1cccc2c1C(=O)c1c(O)c3c(c(O)c1C2=O)C[C@@](O)(C(=O)CO)C[C@@H]3O[C@H]1C[C@H](N)[C@H](O)[C@H](C)O1 [DOXORUBICIN] | 0.44 | 0.23 | – | – | – | 0.14 | 0.13 | 0.74 | > 10 | EC50 [15]: 0.051 µM; EC50 [7]: 0.134 µM; EC50 [13]: 0.036 µM |
| COc1cc([C@@H]2c3cc4c(cc3[C@@H](O[C@@H]3O[C@@H]5CO[C@@H](C)O[C@H]5[C@H](O)[C@H]3O)[C@H]3COC(=O)[C@H]23)OCO4)cc(OC)c1O [ETOPOSIDE] | 0.71 | 1.7 | – | – | – | 4.3 | 3.6 | > 10 | > 10 | EC50 [15]: 0.67 µM; EC50 [13]: 2.1 µM |
| CCOc1ccccc1-n1c(C(C)N2CCN(C(=O)COc3ccc(Cl)cc3)CC2)nc2ccccc2c1=O (stereo not drawn) [ERASTIN] | 0.54 | 7.5 | > 10 | > 10 | – | – | 0.19 | 9.5 | > 10 | EC50 [8]: > 10 µM |
| Cc1cc(Nc2cc(CN3CCOCC3)c3nc(C)c(Cc4ccc(Cl)cc4F)n3n2)n[nH]1 [GANDOTINIB] | 9.3 | 3 | > 10 | > 10 | 0.36 | 0.94 | 0.069 | – | > 10 | – |
| COc1cc(C)c2c(Oc3cccc(C(F)(F)F)c3)c(OC)cc(NC(C)CCCN)c2n1 (stereo not drawn) [TAFENOQUINE] | > 10 | > 10 | > 10 | > 10 | > 10 | > 10 | > 10 | – | > 10 | CHRF288-11 %inh [17]: 134.8%; CMK %inh [18]: 107.9%; U937 %inh [19]: 46.41%; CMS %inh [20]: 39.64%; M07e %inh [21]: 38.9%; MV4-11 %inh [22]: 34.4%; MOLM-13 %inh [23]: 98.6%; ML-2 %inh [24]: 62.38% |
| CC(C)C[C@H](NC(=O)[C@H](CCc1ccccc1)NC(=O)CN1CCOCC1)C(=O)N[C@@H](Cc1ccccc1)C(=O)N[C@@H](CC(C)C)C(=O)[C@@]1(C)CO1 [Carfilzomib] | – | – | – | – | – | – | – | – | – | EC50 [1]: 0.0029 µM |
| C=C1CC[C@@H]2[C@](C)(CO)[C@H](O)CC[C@@]2(C)[C@@H]1C/C=C1/C(=O)OC[C@H]1O [ANDROGRAPHOLIDE] | 3.8 | 10 | > 10 | > 10 | 5.8 | 1.7 | 8.5 | – | > 10 | – |
| O=C(Nc1c[nH]nc1-c1nc2ccc(CN3CCOCC3)cc2[nH]1)NC1CC1 [AT9283] | 6.6 | 0.09 | > 10 | > 10 | – | 6.1 | – | 0.19 | – | EC50 [4, 25]: 0.19 µM; EC50 [7]: > 10 µM |
| CN1CCC(CNc2ccc3ncc(-c4cccc(OC(F)(F)F)c4)n3n2)CC1 [SGI-1776] | > 10 | > 10 | – | – | > 10 | 10 | > 10 | – | > 10 | EC50 [15]: 0.99 µM; EC50 [13]: 1.6 µM |
| O=C(/C=C/c1ccc(CN(CCO)CCc2c[nH]c3ccccc23)cc1)NO [DACINOSTAT] | 0.001 | 0.001 | > 10 | > 10 | – | 0.001 | 0.001 | 0.001 | – | CHRF288-11 %inh [17]: 161.9%; CMK %inh [18]: 120.3%; U937 %inh [19]: 87.23%; CMS %inh [20]: 111%; EC50 [4, 25]: 0.001 µM; M07e %inh [21]: 149.6%; MV4-11 %inh [22]: 78.77%; MOLM-13 %inh [23]: 102.9%; ML-2 %inh [24]: 65.79% |
| CC(=O)O[C@@]12CO[C@@H]1C[C@H](O)[C@@]1(C)C(=O)[C@H](O)C3=C(C)[C@@H](OC(=O)[C@H](O)[C@@H](NC(=O)OC(C)(C)C)c4ccccc4)C[C@@](O)([C@@H](OC(=O)c4ccccc4)[C@H]21)C3(C)C [Docetaxel, docetaxel] | – | – | – | – | – | – | – | – | – | EC50 [1]: > 10 µM |

From article PMC6522510 (Nature Communications, 2019)
